# Results as given in patent US10953113B2, “Imaging agents and methods of use” (The Board of Regents of the University of Oklahoma, priority 2016, dated 2021).
# “Also recorded” adds a separate entry of the source.
# Experiments:
# [1] = test system: infarct region in brain (MCAO); assay: PET/SPECT imaging in middle cerebral artery occlusion (MCAO) mouse model of brain stroke; assay type: in vivo; conditions: for Uptake in stroke regions: MCAO mouse model, FIG. 13, PET or SPECT
# Description: Fasted mice are anesthetized with 1.5% isoflurane in a stream of O2:N2 mixture (30:70, 1 L/min) and blanketed in a thermostatic blanket at 37° C. […] The common carotid artery is occluded by a micro-clip. The left ECA is ligated, coagulated, and cut distal to the cranial thyroid artery. A 15 mm monofilament nylon suture (6-0, dia of heat-rounded tip=0.2-0.3 mm) is inserted into the ECA and gently advanced through the ICA until its tip has occluded the origin of the MCA. Correct placement of the suture is indicated by a sudden drop of the local cortical blood flow in the left MCA territory to 10-20% of basal flow. CBF is monitored by non-invasive laser Doppler flowmetry (Moor Instruments). A sustained reduction of >80% is indicative of successful MCAO. The monofilament is secured in place with a ligature and the skin incision is closed. The monofilament suture is left in place for permanent MCAO, but for transient MCAO, the occluding suture is removed after 1 h by anesthetizing the mouse and re-opening the wound.
# ^18F-FGA was found, in the present work, to accumulate in the brain of a mouse model of brain stroke created by middle cerebral artery occlusion (MCAO). To test ^18F-FGA for imaging infarct in brain, we employed a mouse model of permanent MCAO. PET was performed after 2 h of MCAO surgery. Approximately 1 mCi of ^18F-FGA was injected (i.v.) and a 20 min image was acquired after 1 h of injection. […] We also performed 1 day post-MCAO imaging of brain excised after 2 h of ^18F-FGA injection.
# [2] = test system: ISO-induced myocardial injury; assay: PET/SPECT imaging in rat model of ISO-induced myocardial damage; assay type: in vivo, Sprague Dawley rats; conditions: for Delineation of ISO-induced myocardial pathology by imaging: control vs ISO-treated rats
# Description: (§1) Male Sprague Dawley rats (250-300 g) were purchased from Harlan (Indianapolis, Ind., USA), housed in regular light/dark cycles and allowed to acclimatize for at least 5 days prior to the experiments. Myocardial injury was induced by administering a sterile aqueous solution of ISO at a dose rate of 150 mg/kg bodyweight. The drug was intraperitoneally injected on two consecutive days.
# In addition to the post-injury imaging, baseline images were also acquired before inducing ISO-injury. […] All injections were given intravenously in the tail vein of anesthetized (2% isoflurane-oxygen mixture) rats and imaging was performed at indicated times after the injections. Through the imaging period, anesthesia was maintained with a 2% isoflurane-oxygen mixture. For PET, the rats were positioned supine in a gantry of a PET-CT dual modality machine (Gamma Medica Ideas, Northridge, Calif.). A fly-mode CT of thoracic region was acquired before a 20 min list mode PET data acquisition. SPECT imaging was performed on a NanoSPECT machine (Trifoil Imaging, Chatsworth, Calif.) by helical SPECT acquisition of the thoracic region in 24 frames of 60 seconds each. After imaging, the rats were allowed to wake up and kept in their cage until the time of euthanasia.
# The acquired PET images was reconstructed by filtered back projection algorithm and fused with the CT to generate a composite PET-CT image. SPECT acquisitions were reconstructed with HiSPECT reconstruction algorithm provided with the system.
# Standard uptake value (SUV) was calculated by defining a three-dimensional region of interest (ROI) around the heart using the CT image. Background was determined by placing a spherical ROI at the same level as the 4th sternebrae in the XY plane in the posterior medial area of the left lung. Mean counts per voxel for the heart were normalized to mean background counts per voxel.
# [3] = Circulation kinetics of ^18F-FGA in mice; assay type: in vivo, CD-1 mice; conditions: i.v., elimination phase, 30-180 minute time points
# Description: Five male CD-1 mice were injected with 100 μCi of ^18F-FGA intravenously via the tail vein. At 0, 30, 60, 90, 120, and 180 minutes post injection, 25-50 μl of blood was sampled from the retro-orbital sinus. Blood was weighed and counted in an automated gamma counter (Packard Cobra II Auto Gamma, Perkin Elmer, Boston, Mass.). One mouse was excluded from the study based on macroscopic observations about the abnormal kidney morphology upon necropsy.
# For statistical comparisons we employed GraphPad Prism 6 Software (GraphPad, La Jolla, Calif.). Two group comparisons were performed using a Student's T Test, comparisons between 3 or more groups were done using one way ANOVA. Pharmacokinetic parameters were calculated from the semi-log plot of time-activity curves using method of residuals.
# Circulation kinetics of ^18F-FGA was studied over the course of 3 h. As shown in FIG. 6 (left panel), by 30 min, more than 99% of the injected dose was removed from circulation. […] Pharmacokinetic parameters were calculated from the 30-180 minute time points and are presented in tabular form (FIG. 6, right panel).
# [4] = Biodistribution of ^18F-FGA in normal mice; assay type: in vivo, CD1 mice; conditions: for Biodistribution, Blood / Biodistribution, Bone / Biodistribution, Brain / Biodistribution, Heart / Biodistribution, Kidney / Biodistribution, Liver / Biodistribution, Lung / Biodistribution, Muscle / Biodistribution, Spleen: i.v. 0.1 mCi, decay-corrected, mean ± SD
# Description: All animal work described herein was performed according to the NIH Animal Use and Care Guidelines and was approved by the institutional IACUC. Nine male and three female CD1 mice (20-36 g) were obtained from Harlan Laboratories (Indianapolis, Ind.), and housed in a controlled environment with 12 h day/night cycle. The mice were allowed to acclimatize for at least 1 week before inclusion in the study. On the day of imaging, the animals were anesthetized with 2-3% isoflurane in oxygen stream. Approximately 100 μCi of ^18F-FGA was injected intravenously in the tail vein. The animals were placed in a cage with absorbent padding until biodistribution. Briefly, the mice were euthanized after 1 or 3 hours post injection by an over-dose of isoflurane (4%) followed by cervical dislocation. Various organs were excised, washed with saline, weighed, and appropriate tissue samples were counted in an automated gamma counter (Packard Cobra II Auto Gamma, Perkin Elmer, Boston, Mass.). Total blood volume, bone, and muscle mass were estimated as 5.7%, 10% and 40% of body weight, respectively. A diluted sample of injected ^18F-FGA served as a standard for comparison.
# Results of a whole body distribution analysis of ^18F-FGA in various organs of normal mice 1 and 3 h after injection are shown in Table 1. Normal healthy mice were injected with ^18F-FGA (0.1 mCi) via the tail vein and the mice were euthanized at 1 h and 3 h post injection. […] All other organs accumulated less than 0.5% of the injected dose/g tissue. The concentration of ^18F-FGA in circulation was also negligible.
# We injected 0.1 mCi (50 μl) of ^18F-FGA in normal healthy mice (n=8), and collected organs for counting at 1 h post-injection. The accumulation in the brain was less than about 0.1% and in all major organs was below 0.5% of the injected dose and it cleared via renal system. […] Rapid clearance and absence of accumulation in healthy cerebral tissue indicated effectiveness of ^18F-FGA for clear infarct imaging.
# rats = assay: ISO-induced myocardial injury in rats (ECG, cardiac troponin I, corticosterone, TTC staining); assay type: in vivo, Sprague Dawley rats
# Description: as §1
# Lead 1 ECG of isoflurane-anesthetized rats was recorded by placing negative electrode on the right front paw, positive electrode on the left front paw, and ground lead on to the left hind paw. The electrodes were secured to the lead (CB Sciences C-ISO-255), bioamplifier (ETH-225), and analog to digital converter (iWorx 118) and the signal was recorded using Labscribe 2.0 software (iWorx, Dover, N.H.). Before analysis of raw data, the signal was filtered to eliminate 60 Hz mains frequency.
# Blood samples were collected before euthanasia and plasma was separated by centrifugation (5,000 rpm for 5 min). We determined the levels of cardiac TnI (cTnI) in plasma by using a rat-specific enzyme-linked immunoassay kit obtained from Life Diagnostics (West Chester, Pa.). The plasma samples were diluted 1:2 with PBS before estimation.
# We measured the concentration of stress hormone corticosterone in undiluted plasma by using an ELISA kit from Cayman Chemicals (Ann Arbor, Mich.). Corticosterone is the only glucocorticoid present in rats.
# After the final session of imaging and blood sample collection, the rats were euthanized and their hearts were immediately collected and frozen at −20° C. for 2 h. The hearts were sectioned into 2 mm slices and placed in 1% solution of TTC in PBS at 37° C. with intermittent shaking. After 30 min of staining, the TTC was removed and replaced with 10% buffered fomialin overnight.
# [5] = normal healthy mice (n=8), 0.1 mCi, 1 h post-injection
# [6] = normal mice, 1 and 3 h after injection
smiles,measurement,setting,value
"C/C(=N\[O-])[C@@H](C)[N-]CC(C)(C)C[N-][C@H](C)/C(C)=N/O.[O]=[99Tc+3] (racemic) [HMPAO, reference compound]",Uptake in stroke regions,[1],deficient uptake in stroke regions
"[C-]#[N+]CC(C)(C)OC.[C-]#[N+]CC(C)(C)OC.[C-]#[N+]CC(C)(C)OC.[C-]#[N+]CC(C)(C)OC.[C-]#[N+]CC(C)(C)OC.[C-]#[N+]CC(C)(C)OC.[Tc] [^99mTc-Sestamibi, ^99mTc-sesta-methoxyisobutylisonitrile, reference compound]",Delineation of ISO-induced myocardial pathology by imaging,[2],unable to delineate ISO-induced myocardial pathology
"O=C(O)[C@@H](O)[C@@H](O)[C@H](O)[C@@H]([18F])C(=O)O [^18F-FGA, 2-deoxy-2-[^18F]fluoroglucaric acid]",Ipsilateral vs contralateral accumulation in excised brain,"[1]; 1 day post-MCAO, brain excised 2 h after injection",higher accumulation in the ipsilateral side than the contralateral side
same,Uptake in stroke regions,[1],accumulates in stroke regions of ipsilateral cerebral hemisphere
same,Accumulation in ipsilateral side of brain,"[1]; permanent MCAO, PET after 2 h of MCAO, 1 mCi i.v., image 1 h after injection",central area of ^18F-FGA accumulation
same,Elimination rate constant,[3],0.83 h⁻¹
same,Half-life,[3],approximately 35 minutes
same,Accumulation in all major organs,[4]; [5],below 0.5 % of the injected dose
same,Accumulation in the brain,[4]; [5],less than 0.1 % of the injected dose
same,Accumulation in all other organs (other than renal system),[4]; [6],less than 0.5 % of the injected dose/g tissue
same,Concentration in circulation,[4]; [6],negligible
same,Fate of the majority of injected radioactivity,[4]; [6],excreted via the renal system
same,"Biodistribution, Blood","[4]; normal mice, 1 hour (n = 8)",0.145 ± 0.095 % ID/g tissue
same,"Biodistribution, Bone","[4]; normal mice, 1 hour (n = 8)",0.321 ± 0.128 % ID/g tissue
same,"Biodistribution, Brain","[4]; normal mice, 1 hour (n = 8)",0.039 ± 0.027 % ID/g tissue
same,"Biodistribution, Heart","[4]; normal mice, 1 hour (n = 8)",0.056 ± 0.027 % ID/g tissue
same,"Biodistribution, Kidney","[4]; normal mice, 1 hour (n = 8)",4.226 ± 3.281 % ID/g tissue
same,"Biodistribution, Liver","[4]; normal mice, 1 hour (n = 8)",0.417 ± 0.128 % ID/g tissue
same,"Biodistribution, Lung","[4]; normal mice, 1 hour (n = 8)",0.192 ± 0.087 % ID/g tissue
same,"Biodistribution, Muscle","[4]; normal mice, 1 hour (n = 8)",0.049 ± 0.025 % ID/g tissue
same,"Biodistribution, Spleen","[4]; normal mice, 1 hour (n = 8)",0.074 ± 0.036 % ID/g tissue
same,"Biodistribution, Blood","[4]; normal mice, 3 hour (n = 4)",0.051 ± 0.025 % ID/g tissue
same,"Biodistribution, Bone","[4]; normal mice, 3 hour (n = 4)",0.727 ± 0.773 % ID/g tissue
same,"Biodistribution, Brain","[4]; normal mice, 3 hour (n = 4)",0.014 ± 0.007 % ID/g tissue
same,"Biodistribution, Heart","[4]; normal mice, 3 hour (n = 4)",0.018 ± 0.01 % ID/g tissue
same,"Biodistribution, Kidney","[4]; normal mice, 3 hour (n = 4)",0.698 ± 0.378 % ID/g tissue
same,"Biodistribution, Liver","[4]; normal mice, 3 hour (n = 4)",0.087 ± 0.027 % ID/g tissue
same,"Biodistribution, Lung","[4]; normal mice, 3 hour (n = 4)",0.104 ± 0.073 % ID/g tissue
same,"Biodistribution, Muscle","[4]; normal mice, 3 hour (n = 4)",0.03 ± 0.018 % ID/g tissue
same,"Biodistribution, Spleen","[4]; normal mice, 3 hour (n = 4)",0.033 ± 0.015 % ID/g tissue
same,Accumulation in cardiac tissue of ISO-treated rats,"[2]; PET, 1 h post-injection, after two consecutive days of ISO",accumulated large amounts
same,Time to accumulation in ISO-treated hearts,"[2]; PET, ISO-treated rats",≤ 1 h
same,Contrast between accumulation in myocardial tissue and non-target tissues,"[2]; PET, ISO-treated rats, 4 h post-injection",very pronounced
same,Uptake in normal (baseline/control) heart,"[2]; PET, rats without ISO treatment",negligible uptake; also recorded: no detectable signal
same,Delineation of ISO-induced myocardial pathology by imaging,[2],clearly diagnosed ISO-induced cardiomyopathy
"CC(C)NCC(O)c1ccc(O)c(O)c1 (stereo not shown) [ISO, isoproterenol]",Cardiac troponin in plasma,"rats; ISO-treated rats (n=4), 150 mg/kg i.p. on two consecutive days, plasma 24-48 hours after ISO",63 pg/mL
same,Plasma level of corticosterone,"rats; ISO-treated rats (n=6), 150 mg/kg i.p. on two consecutive days",34.1 ng/mL
same,"Heart histology (Evans blue, TTC staining)","rats; rats, after two consecutive days of ISO injection",generalized and extensive necrosis
same,ST duration (ECG),"rats; rats, over the course of ISO treatment",increased
same,R-R interval (ECG),"rats; rats, same day of ISO treatment",significantly decreased
